Experimental data taken from patent US20250171438A1 (Agios Pharmaceuticals, Inc., priority 2022, published 2025).

What follows are compounds tested against T1, human PAH with the R408W mutation (Homo sapiens, UniProt P00439, R408W) (assay: Cell Based Phenylalanine Flux Assay). Details: A375 cells expressing human R408W PAH; 24 hrs with compound; 13C-Tyrosine by LC-MS; average where tested multiple times.
T1 construct: expressed in transfected cells
T1 sequence (P00439 1-452 R408W): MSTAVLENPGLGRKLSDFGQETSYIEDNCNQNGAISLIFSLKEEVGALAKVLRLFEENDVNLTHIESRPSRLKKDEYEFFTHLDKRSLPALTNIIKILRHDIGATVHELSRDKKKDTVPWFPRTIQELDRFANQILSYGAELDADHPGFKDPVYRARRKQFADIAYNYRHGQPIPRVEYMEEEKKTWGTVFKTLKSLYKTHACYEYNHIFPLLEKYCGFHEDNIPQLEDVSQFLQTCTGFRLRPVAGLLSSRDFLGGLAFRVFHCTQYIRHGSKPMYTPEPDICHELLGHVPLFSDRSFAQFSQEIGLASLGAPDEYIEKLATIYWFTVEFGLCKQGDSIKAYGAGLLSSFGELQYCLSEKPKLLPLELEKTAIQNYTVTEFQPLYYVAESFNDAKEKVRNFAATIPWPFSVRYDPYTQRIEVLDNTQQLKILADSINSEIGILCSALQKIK
Parameters: scale not given here

Row | AC50 | Structure (SMILES)
1 | E, E | O=C(c1oc(-c2ccccn2)nc1C(F)(F)F)N1CCc2[nH]cnc2[C@@H]1c1nc2ccccc2s1 (single isomer, unassigned)
2 | E, E | Cn1cc(-c2nc(C(F)(F)F)c(C(=O)N3CCc4[nH]cnc4[C@@H]3c3nc4ccccc4s3)o2)cn1 (single isomer, unassigned)
3 | E, E | COCc1ccc2c(C(=O)N3CCc4[nH]cnc4[C@@H]3c3nc4ccccc4s3)c(C(F)F)nn2c1 (single isomer, unassigned)

Row | Structure (SMILES) | AC50
4 | O=C(c1c(C(F)(F)F)nn2ccccc12)N1CCc2[nH]cnc2[C@H]1c1nc2ccccc2s1 (single isomer, unassigned) | E, E
5 | NC(=O)c1nc(-c2ccccn2)oc1C(=O)N1CCc2[nH]cnc2[C@H]1c1nc2ccccc2s1 (single isomer, unassigned) | E, E

Same assay, conditions: A375 cells expressing human R408W PAH; 24 hrs with compound; 13C-Tyrosine by LC-MS; average where tested multiple times; read-out: AC50

Row | AC50 [µM] | Structure (SMILES)
6 | 1 to 5 | O=C(CCc1nccs1)N1CCc2[nH]cnc2C1c1nc2ccc(Br)cc2s1 (stereo not drawn)
7 | 1 to 5 | Nc1cnc(N2CCc3[nH]cnc3C2c2nc3ccccc3s2)nc1 (stereo not drawn)
8 | 0.5 to 1 | O=C(c1cnc(C2CCC(F)(F)CC2)s1)N1CCc2[nH]cnc2C1c1nc2ccccc2s1 (stereo not drawn)
9 | 1 to 5 | O=C(c1oc(-c2ccccn2)nc1-c1ccccc1)N1CCc2[nH]cnc2C1c1nc2ccccc2s1 (stereo not drawn)
10 | > 5 | Cn1ncc(C(=O)N2CCc3[nH]cnc3C2c2nc3c(F)cccc3s2)c1N (stereo not drawn)
11 | 1 to 5 | O=C(c1cnco1)N1CCc2[nH]cnc2C1c1nc2c(F)cccc2s1 (stereo not drawn)
12 | > 5 | CC(C)(O)c1cc(C(=O)N2CCc3[nH]cnc3C2c2nc3ccccc3s2)on1 (stereo not drawn) [listing 1 of 2 here]
13 | > 5 | CC(C)(O)c1noc(C(=O)N2CCc3[nH]cnc3C2c2nc3ccccc3s2)n1 (stereo not drawn) [listing 1 of 2 here]
14 | 1 to 5 | CC(C)(O)c1nc(C(=O)N2CCc3[nH]cnc3C2c2nc3ccccc3s2)no1 (stereo not drawn)
15 | 1 to 5 | O=C(c1cnco1)N1CCc2[nH]cnc2C1c1nc2c(C(F)(F)F)cccc2s1 (stereo not drawn)
16 | 1 to 5 | Cn1nc(C2CC2)cc1C(=O)N1CCc2[nH]cnc2C1c1nc2c(F)cccc2s1 (stereo not drawn)
17 | 1 to 5 | CC(C)(O)c1noc(C(=O)N2CCc3[nH]cnc3C2c2nc3ccccc3s2)n1 (stereo not drawn) [listing 2 of 2 here]
18 | 1 to 5 | CC(C)(O)c1cc(C(=O)N2CCc3[nH]cnc3C2c2nc3ccccc3s2)on1 (stereo not drawn) [listing 2 of 2 here]
19 | 1 to 5 | Cn1ncnc1C(=O)N1CCc2[nH]cnc2C1c1nc2c(F)cccc2s1 (stereo not drawn)
20 | > 5 | Cc1nnc(C(=O)N2CC(C)c3[nH]cnc3C2c2nc3ccccc3s2)o1 (stereo not drawn) [listing 1 of 3 here]
21 | > 5 | CC1CN(C(=O)c2nnc(C(C)(C)O)o2)C(c2nc3ccccc3s2)c2nc[nH]c21 (stereo not drawn) [listing 1 of 4 here]
22 | > 5 | Cc1nc(C(C)(C)O)oc1C(=O)N1CC(C)c2[nH]cnc2C1c1nc2c(F)cccc2s1 (stereo not drawn) [listing 1 of 4 here]
23 | 1 to 5 | CC1CN(C(=O)c2cnc(N3CCOCC3)o2)C(c2nc3ccccc3s2)c2nc[nH]c21 (stereo not drawn) [listing 1 of 4 here]
24 | > 5 | Cc1nc(-c2ccccn2)oc1C(=O)N1CC(C)c2[nH]cnc2C1c1nc2ccccc2s1 (stereo not drawn) [listing 1 of 3 here]
25 | > 5 | CC1CN(C(=O)c2cnco2)C(c2nc3c(F)cccc3s2)c2nc[nH]c21 (stereo not drawn) [listing 1 of 4 here]
26 | > 5 | CC1CN(C(=O)c2cnn3cc(CN(C)C)ccc23)C(c2nc3ccccc3s2)c2nc[nH]c21 (stereo not drawn) [listing 1 of 3 here]
27 | > 5 | Cc1nnc(C(=O)N2CC(C)c3[nH]cnc3C2c2nc3ccccc3s2)o1 (stereo not drawn) [listing 2 of 3 here]

Row | AC50 [µM] | Structure (SMILES)
28 | > 5 | CC1CN(C(=O)c2nnc(C(C)(C)O)o2)C(c2nc3ccccc3s2)c2nc[nH]c21 (stereo not drawn) [listing 2 of 4 here]
29 | > 5 | Cc1nc(C(C)(C)O)oc1C(=O)N1CC(C)c2[nH]cnc2C1c1nc2c(F)cccc2s1 (stereo not drawn) [listing 2 of 4 here]
30 | > 5 | CC1CN(C(=O)c2cnc(N3CCOCC3)o2)C(c2nc3ccccc3s2)c2nc[nH]c21 (stereo not drawn) [listing 2 of 4 here]
31 | > 5 | CC1CN(C(=O)c2cnco2)C(c2nc3c(F)cccc3s2)c2nc[nH]c21 (stereo not drawn) [listing 2 of 4 here]
32 | 1 to 5 | COCCc1ncc(C(=O)N2CC(C)c3[nH]cnc3C2c2nc3ccccc3s2)o1 (stereo not drawn)
33 | 1 to 5 | CC1CN(C(=O)c2nnc(C(C)(C)O)o2)C(c2nc3ccccc3s2)c2nc[nH]c21 (stereo not drawn) [listing 3 of 4 here]
34 | 1 to 5 | Cc1nc(C(C)(C)O)oc1C(=O)N1CC(C)c2[nH]cnc2C1c1nc2c(F)cccc2s1 (stereo not drawn) [listing 3 of 4 here]
35 | 1 to 5 | CC1CN(C(=O)c2cnc(N3CCOCC3)o2)C(c2nc3ccccc3s2)c2nc[nH]c21 (stereo not drawn) [listing 3 of 4 here]
36 | 1 to 5 | Cc1nc(-c2ccccn2)oc1C(=O)N1CC(C)c2[nH]cnc2C1c1nc2ccccc2s1 (stereo not drawn) [listing 2 of 3 here]
37 | 1 to 5 | CC1CN(C(=O)c2cnco2)C(c2nc3c(F)cccc3s2)c2nc[nH]c21 (stereo not drawn) [listing 3 of 4 here]
38 | 1 to 5 | CC1CN(C(=O)c2cnn3cc(CN(C)C)ccc23)C(c2nc3ccccc3s2)c2nc[nH]c21 (stereo not drawn) [listing 2 of 3 here]
39 | > 5 | CC1CN(C(=O)c2cnc(CN(C)C)o2)C(c2nc3ccccc3s2)c2nc[nH]c21 (stereo not drawn)
40 | 1 to 5 | Cc1nnc(C(=O)N2CC(C)c3[nH]cnc3C2c2nc3ccccc3s2)o1 (stereo not drawn) [listing 3 of 3 here]
41 | 1 to 5 | CC1CN(C(=O)c2nnc(C(C)(C)O)o2)C(c2nc3ccccc3s2)c2nc[nH]c21 (stereo not drawn) [listing 4 of 4 here]
42 | 1 to 5 | Cc1nc(C(C)(C)O)oc1C(=O)N1CC(C)c2[nH]cnc2C1c1nc2c(F)cccc2s1 (stereo not drawn) [listing 4 of 4 here]
43 | 1 to 5 | CC1CN(C(=O)c2cnc(N3CCOCC3)o2)C(c2nc3ccccc3s2)c2nc[nH]c21 (stereo not drawn) [listing 4 of 4 here]
44 | 1 to 5 | Cc1nc(-c2ccccn2)oc1C(=O)N1CC(C)c2[nH]cnc2C1c1nc2ccccc2s1 (stereo not drawn) [listing 3 of 3 here]
45 | > 5 | CC1CN(C(=O)c2cnco2)C(c2nc3c(F)cccc3s2)c2nc[nH]c21 (stereo not drawn) [listing 4 of 4 here]
46 | > 5 | CC1CN(C(=O)c2cnn3cc(CN(C)C)ccc23)C(c2nc3ccccc3s2)c2nc[nH]c21 (stereo not drawn) [listing 3 of 3 here]
47 | > 5 | O=C(Cc1cnco1)N1CCc2[nH]cnc2[C@@H]1c1nc2ccccc2s1 (single isomer, unassigned)
48 | > 5 | Cc1nnc(CC(=O)N2CCc3[nH]cnc3[C@@H]2c2nc3c(F)cccc3s2)s1 (single isomer, unassigned)
49 | > 5 | O=C(Cc1nccs1)N1CCc2[nH]cnc2[C@@H]1c1nc2ccc(Br)cc2[nH]1 (single isomer, unassigned)

Row | AC50 [µM] | Structure (SMILES)
50 | > 5 | O=C(c1cnco1)N1CCc2[nH]cnc2[C@@H]1c1nc2cc(F)ccc2s1 (single isomer, unassigned)
51 | > 5 | O=C(c1cnn2c(Br)cccc12)N1CCc2[nH]cnc2[C@@H]1c1nc2ccccc2[nH]1 (single isomer, unassigned)
52 | > 5 | O=C(c1nccs1)N1CCc2[nH]cnc2[C@@H]1c1nc2ccc(Cl)cc2[nH]1 (single isomer, unassigned)
53 | > 5 | Cc1nnc(CC(=O)N2CCc3[nH]cnc3[C@H]2c2nc3ccccc3[nH]2)o1 (single isomer, unassigned)
54 | 1 to 5 | Cc1nnc(CC(=O)N2CCc3[nH]cnc3[C@H]2c2nc3ccccc3s2)s1 (single isomer, unassigned)
55 | 1 to 5 | CC(=O)N1CCc2[nH]cnc2[C@H]1c1nc2ccccc2s1 (single isomer, unassigned)
56 | 1 to 5 | O=C(Cc1cscn1)N1CCc2[nH]cnc2[C@H]1c1nc2ccccc2s1 (single isomer, unassigned)
57 | 1 to 5 | O=C(Cc1nncs1)N1CCc2[nH]cnc2[C@H]1c1nc2c(F)cccc2s1 (single isomer, unassigned)
58 | 1 to 5 | O=C(CCc1nccs1)N1CCc2[nH]cnc2[C@H]1c1nc2cccc(F)c2[nH]1 (single isomer, unassigned)
59 | 1 to 5 | Cc1nnc(N2CCc3[nH]cnc3[C@H]2c2nc3ccccc3[nH]2)o1 (single isomer, unassigned)
60 | 1 to 5 | Cn1cc(-c2cccc(C(=O)N3CCc4[nH]cnc4[C@H]3c3nc4ccccc4s3)c2)cn1 (single isomer, unassigned)
61 | 1 to 5 | O=C(N1CC[C@@H](c2ccccc2)C1)N1CCc2[nH]cnc2[C@H]1c1nc2ccccc2s1 (single isomer, unassigned)
62 | 1 to 5 | c1ccc2sc([C@@H]3c4nc[nH]c4CCN3CC3CC3)nc2c1 (single isomer, unassigned)
63 | 1 to 5 | O=C(c1cc2ccccn2c1)N1CCc2[nH]cnc2[C@H]1c1nc2ccccc2s1 (single isomer, unassigned)
64 | 1 to 5 | Cc1ncc(C(=O)N2CCc3[nH]cnc3[C@H]2c2nc3c(F)cccc3s2)o1 (single isomer, unassigned)
65 | 1 to 5 | O=C(c1nccs1)N1CCc2[nH]cnc2[C@H]1c1nc2ccc(Cl)cc2s1 (single isomer, unassigned)
66 | 1 to 5 | O=C(c1nncs1)N1CCc2[nH]cnc2[C@H]1c1nc2ccccc2[nH]1 (single isomer, unassigned)
67 | 1 to 5 | Cc1nnc(C(=O)N2CCc3[nH]cnc3[C@H]2c2nc3cc(Br)ccc3[nH]2)s1 (single isomer, unassigned)
68 | 1 to 5 | O=C(c1cnn2cc(Cl)ccc12)N1CCc2[nH]cnc2[C@H]1c1nc2ccc(Br)cc2[nH]1 (single isomer, unassigned)
69 | 1 to 5 | O=C(c1nccs1)N1CCc2[nH]cnc2[C@H]1c1nc2ccc(F)cc2[nH]1 (single isomer, unassigned)

Row | Structure (SMILES) | AC50 [µM]
70 | COCCNc1nnc(C(=O)N2CCc3[nH]cnc3[C@@H]2c2nc3ccccc3s2)o1 (single isomer, unassigned) | > 5
71 | O=C(c1ncn2ccccc12)N1CCc2[nH]cnc2[C@@H]1c1nc2ccc(F)cc2s1 (single isomer, unassigned) | > 5
72 | O=C(c1cnn2cccc(F)c12)N1CCc2[nH]cnc2[C@H]1c1nc2cc(F)ccc2s1 (single isomer, unassigned) | 1 to 5
73 | O=C(c1cnn2ccccc12)N1CCc2[nH]cnc2[C@H]1c1nc2ccc(Cl)cc2s1 (single isomer, unassigned) | 1 to 5

Same assay, conditions: AC50, A375 cells expressing human R408W PAH; 24 hrs with compound; 13C-Tyrosine by LC-MS; average where tested multiple times

Row | AC50 [µM] | Structure (SMILES)
74 | > 5 | Cc1nnc(C(=O)N2CCc3[nH]cnc3C2c2nc3ccc(Cl)cc3[nH]2)s1 (stereo not drawn) [listing 1 of 2 here]
75 | 1 to 5 | Cc1nnc(C(=O)N2CCc3[nH]cnc3C2c2nc3ccc(Cl)cc3[nH]2)s1 (stereo not drawn) [listing 2 of 2 here]
